Data published in patent US20220370515A1, “MEDICAL COMPOSITIONS AND THEIR USE IN TREATING PANCREATIC CANCER” (BIOMILLENIA SAS, priority 2019, published 2022).
“Also recorded” adds a separate entry of the source.

What was measured:
Type in all cases: cell-based
Malassezia globosa [1] = experiment: Disc diffusion inhibition assay (Example 1); settings: M. globosa lawn; 6 mm discs soaked with 15 ul supernatant or ketoconazole 1 mg/ml in DMSO; 5 days incubation
Procedure: (§1) FIG. 1|Inhibition assays of the fungicide ketoconazole as positive control for inhibition and Kazachstania unispora supernatant on M. sympodialis, M. furfur, M. restricta and M. globosa. Inhibition assays were performed using the disc diffusion method. Discs were soaked with ketoconazole (1 mg/ml) or K. unispora supernatant and placed on agar plates containing a soft layer inoculated with a single culture of the different Malassezia species to be tested.
(§2) In order to identify strains inhibiting Malassezia growth, inhibition assays were performed using the disc diffusion method. This method consists in disposing discs imbibed with potential inhibitory substances on Petri plates containing a strain of interest. After optimal growth of the strain of interest, growth inhibition can be observed around discs soaked with substances having an inhibitory effect. Potential inhibitory substances tested in this experiment are supernatants obtained after individually culturing a collection of fungal and bacterial strains. After an incubation of 10 days in their optimal broth, each culture was centrifuged and the supernatant was filtered and further stored at −20° C. Ketoconazole, a fungicide, was used as a positive control for Malassezia growth inhibition. It was diluted in dimethyl sulfoxide at 1 mg/ml. The collection of supernantants was tested on the following species from the genus Malassezia: Malassezia restricta, Malassezia globosa, Malassezia furfur and Malassezia sympodialis. All strains were streaked from −80° C. stock on Modified Leeming and Notman (MLN) agar plates and incubated 10 days at 30° C. A 5 ml liquid culture of each species was made in MLN broth and incubated at 30° C. for 2 days for M. furfur and M. sympodialis and 5 days for M. restricta and M. globosa. To allow a lawn growth of the different Malassezia strains tested, Petri plates were prepared as follows: a bottom layer of 50 ml Modified Sabouraud Dextrose (MSD) agar was poured in Petri plates. The soft agar, constituting the top layer, was a mix of 12.5 ml MSD agar, 10.5 ml MLN broth and 2 ml of liquid culture. Plates were allowed to dry for one hour, then, 6 mm-diameter Whatman™ discs were soaked with 15 ul of each thawed supernatants and ketoconazole and placed on the soft agar plate containing the solidified Malassezia monoculture layer. After an incubation of 5 days, inhibition area could be easily observed around discs. […] The strain from which the inhibitory supernatant has been produced was further sequenced using the Sanger technology. The internal transcribed spacer (ITS) of this strain was taxonomically assigned to the yeast Kazachstania unispora (BLASTn, 99% identity, 99% query cover, e-value 0.00).

Malassezia sympodialis = experiment: Disc diffusion inhibition assay (Example 1); settings: M. sympodialis lawn; 6 mm discs soaked with 15 ul supernatant or ketoconazole 1 mg/ml in DMSO; 5 days incubation
Procedure: as §1, §2

Malassezia furfur = experiment: Disc diffusion inhibition assay (Example 1); settings: M. furfur lawn; 6 mm discs soaked with 15 ul supernatant or ketoconazole 1 mg/ml in DMSO; 5 days incubation
Procedure: as §1, §2

Malassezia restricta [2] = experiment: Disc diffusion inhibition assay (Example 1); settings: M. restricta lawn; 6 mm discs soaked with 15 ul supernatant or ketoconazole 1 mg/ml in DMSO; 5 days incubation
Procedure: as §1, §2

Malassezia globosa [3] = experiment: Modified disc diffusion assay with living culture (Example 2); settings: M. globosa lawn; discs soaked with 15 ul exponentially growing Acetobacter culture or ketoconazole 1 mg/mL in DMSO; 5 days incubation
Procedure: (§3) FIG. 1|Inhibition assays of M. restricta and M. globose by growth of Acetobacter fabarum. Discs were soaked with ketoconazole (1 mg/ml in DMSO) or exponentially growing Acetobacter fabarum culture and placed on agar plates containing a soft layer inoculated with a single culture of the different Malassezia species to be tested. In the upper panel, inhibition of Malassezia globosa is shown; in the bottom panel, Malassezia restricta is shown.
(§4) In order to identify strains whose growth inhibits Malassezia, inhibition assays were performed using a modified disc diffusion method. This method is similar to the classical disk diffusion method that consists in depositing discs imbibed with potential inhibitory substances on Petri plates containing a strain of interest, except that the disks were imbibed with a living culture of an Acetobacter strain. After optimal growth of the strain of interest, growth inhibition can be observed around discs on which the growth of inhibitory bacteria has occurred. Ketoconazole (at 1 mg/mL in DMSO) was used as a positive control for Malassezia growth inhibition. The effect of growth of Acetobacter was tested on Malassezia restricta and Malassezia globosa. All Malassezia strains were streaked from −80° C. stock on Modified Leeming and Notman (MLN) agar plates and incubated 10 days at 30° C. […]

Malassezia restricta [4] = experiment: as above; settings: M. restricta lawn; discs soaked with 15 ul exponentially growing Acetobacter culture or ketoconazole 1 mg/mL in DMSO; 5 days incubation
Procedure: as §3, §4

## CC(=O)N1CCN(c2ccc(OCC3COC(Cn4ccnc4)(c4ccc(Cl)cc4Cl)O3)cc2)CC1 (stereo not drawn) [ketoconazole]
Malassezia globosa [1]
  growth inhibition (inhibition halo around disc): inhibits growth of all 4 Malassezia species tested; also recorded: inhibited all 4 Malassezia species tested
Malassezia sympodialis
  growth inhibition (inhibition halo around disc): inhibits growth of all 4 Malassezia species tested; also recorded: inhibited all 4 Malassezia species tested
Malassezia furfur
  growth inhibition (inhibition halo around disc): inhibits growth of all 4 Malassezia species tested; also recorded: inhibited all 4 Malassezia species tested
Malassezia restricta [2]
  growth inhibition (inhibition halo around disc): inhibits growth of all 4 Malassezia species tested; also recorded: inhibited all 4 Malassezia species tested
Malassezia globosa [3]
  growth inhibition (inhibition halo around disc): inhibits growth of both Malassezia species tested; also recorded: inhibited both Malassezia restricta and Malassezia globose
Malassezia restricta [4]
  growth inhibition (inhibition halo around disc): inhibits growth of both Malassezia species tested; also recorded: inhibited both Malassezia restricta and Malassezia globose
